We go through 15 molecules from PMC8955370, “Triterpenes and Phenolic Compounds from Euphorbia deightonii with Antiviral Activity against Herpes Simplex Virus Type-2” (Plants, 2022).

Like-named read-outs stand apart in the source and are kept apart here. A value given as a limit tells only on which side of the number the result lay.

The test system of data set [1] is HSV-2. The data set can be described thus: Anti-HSV-2 qRT-PCR assay on infected Vero cells. The note with it: for IC50: Human alphaherpesvirus 2, Vero; for Selectivity Index: SI = CC50/IC50; for Anti-HSV-2 Activity IC50: Vero cells infected with 0.01 MOI HSV-2, 24 h, qRT-PCR. (Real-time PCR tracks product formation cycle by cycle.)
The nature of data set [2]: MTT cell viability assay for cytotoxic concentration 50% (CC50). It is filed as cell-based. The note with it: African green monkey. As to the method:
For the determination of cytotoxic concentration 50% (CC50), a cell viability test was performed as an MTT assay using the Vero cell line. Cells were seeded at a density of 4 × 10^4 cells/well. After an overnight period, fresh medium was complemented with serial 2-fold dilutions of all compounds 1–8. The cells were incubated at 37 °C for 24 h. Later, 20 μL of thiazolyl blue tetrazolium bromide (MTT; Sigma-Aldrich, St. Louis, MO, USA) was added to each well. After an additional incubation at 37 °C for 4 h, sodium dodecyl sulphate (Sigma-Aldrich, St. Louis, MO, USA) solution (10% in 0.01 M HCI) was added and incubated overnight. CC50 was then determined by measuring the OD at 550 nm (ref. 630 nm) with the EZ READ 400 ELISA reader (Biochrom, Cambridge, UK). The assay was replicated four times for each concentration.
For orientation: Formazan colour is commonly taken as a measure of viable cells.

For data set [3], the system named is HSV-2. The conditions noted are these: by reducing HSV-2 infectivity; cited from earlier work.
For data set [4], the system named is gastric epithelial cell lines (GES–2). On the set-up: method as in PMID 23109850. The conditions noted are these: GES–2 cells; cited from earlier work.
A further data set relates to rat epithelioid. On the set-up: method as in PMID 26274958. The note with it: rat epithelioid cells; cited from earlier work.
For data set [5], the system named is human normal liver (L–O2). On the set-up: method as in PMID 23109850. The note with it: L–O2 cells; cited from earlier work.
In data set [6] the test system is six terrestrial pathogenic bacteria. Also on record: method as in PMID 24914904. The conditions noted are these: cited from earlier work.
The test system of data set [7] is murine colon 26-L5 carcinoma cells. On the set-up: method as in PMID 9677271. The note with it: cited from earlier work.
Data set [8] deals with human HT-1080 fibrosarcoma. Also on record: method as in PMID 9677271. The conditions noted are these: cited from earlier work.
The next data set concerns Klebsiella pneumoniae. On the set-up: method as in doi:10.1016/S0031-9422(00)81759-8. The note with it: cited from earlier work.
A further data set has as its system Bacillus subtilis. Also on record: method as in doi:10.1016/S0031-9422(00)81759-8. The note with it: cited from earlier work.
The next data set concerns Trychophyton rubrum. On the set-up: method as in doi:10.1016/S0031-9422(00)81759-8. The conditions noted are these: cited from earlier work.
Data set [9] concerns influenza A virus (A/PR/8/34, H1N1). Also on record: method as in PMID 28081470. The note with it: not effective; cited from earlier work.
Data set [10] deals with porcine circovirus type 2 (PCV2). Also on record: method as in doi:10.1007/s12257-014-0520-8. The conditions noted are these: at the concentration of 0.01563 mg/mL; cited from earlier work.
The next data set deals with hepatitis B virus (HBV). On the set-up: method as in PMID 31557836. The note with it: HepG2.2.15 model transfected with HBV; cited from earlier work.
Data set [11] deals with acyclovir (ACV)-resistant strains of HSV-2. The note with it: ACV-resistant HSV-2; cited from earlier work.
Data set [12] concerns acyclovir (ACV)-resistant strains of HSV-1. Also on record: method as in PMID 32545813. The conditions noted are these: ACV-resistant HSV-1; cited from earlier work.
The subject of the next data set is HSV-1. Also on record: method as in PMID 14526920. The note with it: cited from earlier work.
Data set [13] concerns HSV-2. Also on record: method as in PMID 14526920. The conditions noted are these: cited from earlier work.
The subject of a further data set is HSV. On the set-up: method as in PMID 14998984. The conditions noted are these: cited from earlier work.
The mark [14] stands for this setting: 24 h, read-out: Anti-HSV-2 Activity IC50.
Where [15] appears, read: Vero cells, MTT assay, 24 h, read-out: CC50.

The term IC50 denotes the concentration at which inhibition is half-maximal. As usually defined, the CC50 is the concentration at which the toxic effect on the cells reaches its halfway point. `C=CC(OC)c1cc(OC)c2c(c1)[C@@H](COC(C)=O)[C@H](c1ccc(O)c(OC)c1)O2` (relative stereo) [Compound 4, trans-(2-(4-hydroxy-3-methoxyphenyl)-7-methoxy-5-(1-methoxyallyl)-2,3-dihydrobenzofuran-3-yl)methyl acetate]: the IC50 with HSV-2 [1] (setting [14]) worked out at 11.7 ± 0.79 µM. For the same molecule, the “Selectivity Index” value in the data set with HSV-2 [1] is on record as 3.389. In [2], this molecule yielded a CC50 at 24 h of 39.8 ± 4.73 µM.
Regarding `O=C(OC1C(O)C(O)OC2COC(=O)c3cc(O)c(O)c(O)c3-c3c(cc(O)c(O)c3O)C(=O)OC21)c1cc(O)c(O)c(O)c1` [3-O-galloyl-4,6-(S)-hexahydroxydiphenoyl-D-glucose], the HSV-2 multiplication result in the data set with HSV-2 [3] is given as “inhibit HSV-2 multiplication”.
As to `Nc1nc2c(ncn2COCCO)c(=O)[nH]1` [Acyclovir, reference compound], in the data set with HSV-2 [1] (setting [14]), the IC50 came out at 0.77 ± 0.032 µM. The “Selectivity Index” value with HSV-2 [1] came out at 129.87. In data set [2], this molecule came in with a CC50 at 24 h of 100 ± 6.15 µM.
In the same order, the values of `C=C(CC[C@@H](C)[C@H]1CC[C@@]2(C)C3=C(C(=O)C[C@]12C)[C@@]1(C)CC[C@H](O)C(C)(C)[C@@H]1C[C@@H]3O)C(C)C` [Compound 1, 3β,7β-dihydroxy-24-methylenelanosta-8-ene-11-one] are 7.05 ± 0.25 µM, 5.03 and 35.5 ± 1.62 µM.
Consider `CC(C)=CCC[C@@H](C)[C@@H]1CC[C@]2(C)C3=C(CC[C@@]12C)[C@@]1(C)CC[C@H](O)C(C)(C)[C@@H]1CC3=O` [Compound 2, kansenone], for which the “Anti-HSV-2 Activity IC50” value with HSV-2 [1] was “inactive”. For the same molecule, the cytotoxicity result (in data set [4]; in the data set with rat epithelioid; in [5]) was “strong cytotoxicity” each time. For the same molecule, the 50% cytotoxic concentration (CC50) at 24 h in [2] (setting [15]) amounted to 52.1 ± 2.21 µM.
For the molecule `C=C(CC[C@H](C)[C@@H]1CC[C@@]2(C)C3=C(CC[C@]12C)[C@@]1(C)CC[C@H](O)C(C)(C)[C@@H]1CC3=O)C(C)C` [Compound 3, euphorbol-7-one], the IC50 in the data set with HSV-2 [1] (setting [14]) is 2.42 ± 0.06 µM. In the data set on HSV-2 [1], the “Selectivity Index” value is reported as 3.23. Besides, the antibacterial activity entry in data set [6] is “ineffective”. The CC50 at 24 h in [2] (setting [15]) stood at 7.84 ± 0.96 µM.
Take `COc1cc([C@H]2Oc3c(OC)cc(/C=C/COC(C)=O)cc3[C@@H]2COC(C)=O)ccc1O` [Compound 5, dehydrodiconiferyl-diacetate]: the “Anti-HSV-2 Activity IC50” value in the data set on HSV-2 [1] is “inactive”. Further, the cytotoxic activity result in data set [7] and in data set [8] was “moderate cytotoxic activity” throughout. This molecule also yielded a CC50 at 24 h in [2] of 82.5 ± 8.94 µM.
For `COc1cc(C(OC)C(COC(C)=O)Oc2ccc(/C=C/COC(C)=O)cc2OC)ccc1O` (centres unmarked) [Compound 6, marylaurencinol D], the “Anti-HSV-2 Activity IC50” value in the data set with HSV-2 [1] was “inactive”. For the same molecule, the values for the antimicrobial activity entry with Klebsiella pneumoniae, in the data set with Bacillus subtilis and in the data set on Trychophyton rubrum were “no effect”, “weak potency” and “no effect”, respectively. This molecule returned a CC50 at 24 h in data set [2] of 71.6 ± 5.83 µM.
As for `COc1cc2ccc(=O)oc2cc1OC` [Compound 7, 6,7-dimethoxycoumarin], the half-maximal inhibitory concentration (IC50) in the data set with HSV-2 [1] (setting [14]) came out at 0.032 ± 0.0021 µM; with HSV-2 [1] (read-out: IC50 (anti-HSV-2)), 0.032 µM. Moreover, in the data set with HSV-2 [1], the “Selectivity Index” value was found to be 10.923. The “IC50 against influenza A virus” value in data set [9] is listed as above 15 µg/mL. Besides, in [10], the “effect on PCV2 replication” value was “replication-inducing activity”. In [2], this molecule yielded a CC50 at 24 h of 0.35 ± 0.016 µM. For the same molecule, the “anti-hepatitis B virus activity” value in the data set with hepatitis B virus (HBV) was “efficiently inhibits viral replication”.
For `COc1cc2c(=O)oc3c(OC)c(O)cc4c(=O)oc(c1OC)c2c34` [Compound 8, 3,4,3′-tri-O-methylellagic acid], the “Anti-HSV-2 Activity IC50” value in the data set with HSV-2 [1] was “inactive”. The same molecule displayed a CC50 at 24 h in [2] of 25.7 ± 1.84 µM.
Consider `O=C1OC[C@H]2OC(=O)c3cc(O)c(O)c(O)c3-c3c(O)c(O)c(O)c4c3C(=O)O[C@H]([C@H]3OC(=O)c5c-4c(O)c(O)c(O)c5[C@H]3O)[C@@H]2OC(=O)c2cc(O)c(O)c(O)c2-c2c1cc(O)c(O)c2O` [castalagin], for which the antiviral activity result is “activity against acyclovir (ACV)-resistant strains of HSV-1 and HSV-2 was proved” in data set [11]; “activity against acyclovir (ACV)-resistant strains of HSV-1 and HSV-2 was proved” in data set [12].
As for `C=C(C)[C@@H]1CC[C@]2(C)CC[C@]3(C)[C@H](CC[C@@H]4[C@@]5(C)CCC(=O)C(C)(C)[C@@H]5CC[C@]43C)[C@@H]12` [lupenone], the “viral plaque inhibitory effect” value in the data set with HSV-1 and in the data set with HSV-2 [13] was “strong viral plaque inhibitory effect” throughout.
As for `O=C(OC1OC2COC(=O)c3cc(O)c(O)c(O)c3-c3c(cc(O)c(O)c3O)C(=O)OC3C2OC(=O)C24CC5(O)OC6(OCC(O)C6O)C2OC2(O)C4c4c(cc(O)c(O)c4OC52O)C(=O)OC13)c1cc(O)c(O)c(O)c1` (centres unmarked) [putranjivain A], in the data set with HSV, the “viral attachment and cell penetration” value was “inhibition of viral attachment and cell penetration”; the viral infectivity result was “significantly reduce viral infectivity”.
With `O=C1OCC2OC(=O)c3cc(O)c(O)c(O)c3-c3c(O)c(O)c(O)c4c3C(=O)OC(C2OC(=O)c2cc(O)c(O)c(O)c2-c2c1cc(O)c(O)c2O)C1OC(=O)c2c-4c(O)c(O)c(O)c2C1O` (centres unmarked) [vescalagin], the antiviral activity entry in data set [11] was “activity against acyclovir (ACV)-resistant strains of HSV-1 and HSV-2 was proved”; in data set [12], “activity against acyclovir (ACV)-resistant strains of HSV-1 and HSV-2 was proved”.
As for grandinin, the antiviral activity entry in data set [11] was “activity against acyclovir (ACV)-resistant strains of HSV-1 and HSV-2 was proved”; in data set [12] it was “activity against acyclovir (ACV)-resistant strains of HSV-1 and HSV-2 was proved”.
